Measurements from US20190284168A1, “PYRAZOLE DERIVATIES AS SGC STIMULATORS” (IRONWOOD PHARMACEUTICALS, INC., priority 2014, published 2019).

These molecules were tested against T1, sGC enzyme (Homo sapiens, UniProt Q02108+Q02153) (assay: cGMP GloSensor cell-based assay, 384-well format). Conditions: read-out: sGC_HEK_GloSensor EC50/IC50 Abs (Norm) (nM) Binned (~).
T1 construct: host or cells: HEK293 cells expressing GloSensor 40F cGMP
T1 sequence (Q02153 1-619): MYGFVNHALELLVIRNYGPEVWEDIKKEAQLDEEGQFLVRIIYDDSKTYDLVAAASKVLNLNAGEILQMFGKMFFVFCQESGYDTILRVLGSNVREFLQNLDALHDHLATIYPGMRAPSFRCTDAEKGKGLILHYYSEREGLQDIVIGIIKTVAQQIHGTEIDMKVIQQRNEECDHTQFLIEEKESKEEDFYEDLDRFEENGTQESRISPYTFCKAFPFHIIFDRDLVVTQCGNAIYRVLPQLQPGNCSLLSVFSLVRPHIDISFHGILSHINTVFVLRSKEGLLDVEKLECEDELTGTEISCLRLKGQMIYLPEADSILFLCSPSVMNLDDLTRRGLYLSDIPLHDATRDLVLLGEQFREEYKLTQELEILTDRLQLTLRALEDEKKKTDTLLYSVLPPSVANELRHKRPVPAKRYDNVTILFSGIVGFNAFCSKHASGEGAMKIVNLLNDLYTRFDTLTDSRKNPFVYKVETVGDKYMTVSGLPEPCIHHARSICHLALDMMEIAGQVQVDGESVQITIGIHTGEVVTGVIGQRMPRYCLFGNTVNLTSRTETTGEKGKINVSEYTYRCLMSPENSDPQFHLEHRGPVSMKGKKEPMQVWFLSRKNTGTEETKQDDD
T1 sequence (Q02108 1-690): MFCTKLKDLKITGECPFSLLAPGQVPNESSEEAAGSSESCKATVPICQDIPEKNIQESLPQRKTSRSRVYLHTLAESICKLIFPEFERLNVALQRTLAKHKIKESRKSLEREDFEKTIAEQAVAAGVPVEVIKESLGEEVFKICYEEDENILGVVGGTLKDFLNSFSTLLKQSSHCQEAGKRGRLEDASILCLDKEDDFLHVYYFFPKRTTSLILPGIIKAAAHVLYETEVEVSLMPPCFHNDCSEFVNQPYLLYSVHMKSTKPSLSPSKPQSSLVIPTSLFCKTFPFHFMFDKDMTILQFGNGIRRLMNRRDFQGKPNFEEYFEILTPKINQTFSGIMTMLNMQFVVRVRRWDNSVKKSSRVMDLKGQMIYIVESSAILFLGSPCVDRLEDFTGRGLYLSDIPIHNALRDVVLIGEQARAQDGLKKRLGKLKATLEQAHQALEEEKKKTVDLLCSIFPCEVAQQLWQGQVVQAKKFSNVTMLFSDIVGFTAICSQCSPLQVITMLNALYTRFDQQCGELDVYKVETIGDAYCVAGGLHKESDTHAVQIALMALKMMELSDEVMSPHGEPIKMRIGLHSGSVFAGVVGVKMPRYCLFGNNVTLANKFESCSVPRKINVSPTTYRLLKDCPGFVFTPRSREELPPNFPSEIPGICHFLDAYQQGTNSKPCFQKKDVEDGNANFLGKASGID
Source text: Human embryonic kidney cells (HEK293) cells expressing GloSensor™ 40F cGMP (Part No: CS182801, Promega) were used to evaluate the activity of test compounds. The luminescent biosensors (engineered luciferase) that were incorporated into these cells detect cGMP formed by the compounds stimulating the sGC enzyme and emit luminescence.
cGMP GloSensor cells were maintained in Dulbecco's Modification of Eagle's Medium (DMEM) supplemented with fetal bovine serum (FBS) (10% final) and hygromycine (200 ug/ml). The day before assay, cells were plated in DMEM with 10% FBS in a 50 μL volume at a density of 1.5×10^4 cells/well in a poly-D-lysine coated 384-well flat white-bottom plate (Corning Cat No 35661). Cells were incubated overnight at 37° C. in a humidified chamber with 5% CO2. The next day, medium was removed and cells were replaced with 40 ul/well of GloSensor™, 2 mM (Promega Cat No E1291). Cells were treated for 90 minutes at 25° C. to allow the substrate to equilibrate in the cells. Test compounds and Diethylenetriamine NONOate (DETA-NONOate) was diluted to 3 mM (20×) in serum-free CO2 independent medium and serially diluted at 4× dilutions to create 5× dose curve from which 10 ul was added to the wells (x μM concentration for test compound solution and 10 μM concentration for DETA-NONOate solution; wherein x is one of the following final concentrations). • 30000 nM • 7500 nM • 1875 nM • 468.75 nM • 117.19 nM • 29.29 nM • 7.32 nM • 1.83 nM • 0.46 nM • 0.114 nM • 0.029 nM
For the kinetics studies, luminescense was measured right away for 0.2 sec per well with Envision (Perkin Elmer model No). For endpoint SAR screening, data were collected after 55 min incubation at room temperature.
Data analysis was carried out as indicated above in Example 2A.

Structure (SMILES) | EC50 [nM]
COC(=O)C1CCN(c2nc(-c3cc(-c4ccon4)n(Cc4ccccc4F)n3)ncc2F)CC1 [Compound 171, methyl 1-(5-fluoro-2-(1-(2-fluorobenzyl)-5-(isoxazol-3-yl)-1H-pyrazol-3-yl)pyrimidin-4-yl)piperidine-4-carboxylate] | < 100
CC(=O)c1cc(-c2nncc(O)n2)nn1Cc1ccccc1F [Compound 201] | > 1000
COC(=O)CCCCNc1nc(-c2cc(-c3ccon3)n(Cc3ccccc3F)n2)ncc1F [Compound 175, methyl 5-((5-fluoro-2-(1-(2-fluorobenzyl)-5-(isoxazol-3-yl)-1H-pyrazol-3-yl)pyrimidin-4-yl)amino)pentanoate] | < 100
Oc1nc(-c2cc(-c3ccon3)n(Cc3ccno3)n2)ncc1F [Compound 211] | > 1000
CC(=O)c1cc(-c2nncc(N)n2)nn1Cc1ccccc1F [Compound 198] | > 1000
Cc1cc(Cn2nc(-c3ncc(F)c(O)n3)cc2-c2ccon2)on1 [Compound 190] | 100 to 1000
O=C(O)C[C@H](O)C[C@H](O)CCNc1nc(-c2cc(-c3ccon3)n(Cc3ccccc3F)n2)ncc1F [Compound 134, (3R,5R)-7-((5-fluoro-2-(1-(2-fluorobenzyl)-5-(isoxazol-3-yl)-1H-pyrazol-3-yl)pyrimidin-4-yl)amino)-3,5-dihydroxyheptanoic acid] | 100 to 1000
Nc1ccnc(-c2cc(-c3ccon3)n(Cc3ncccc3F)n2)n1 [Compound 145] | > 1000
Cc1ccc(Cn2nc(-c3ncc(F)c(O)n3)cc2-c2ccon2)cc1 [Compound 185] | < 100
OC(CNc1nc(-c2cc(-c3ncco3)n(Cc3ccccc3F)n2)ncc1F)(C(F)(F)F)C(F)(F)F [Compound 141] | 100 to 1000
OCCN1CCN(c2nc(-c3cc(-c4ccon4)n(Cc4ccccc4F)n3)ncc2F)CC1 [Compound 170, 2-(4-(5-fluoro-2-(1-(2-fluorobenzyl)-5-(isoxazol-3-yl)-1H-pyrazol-3-yl)pyrimidin-4-yl)piperazin-1-yl)ethanol] | < 100
CCOC(=O)C(C)(C)c1nc(-c2cc(-c3ccon3)n(Cc3ccccc3F)n2)nnc1O [Compound 192] | > 1000
CN(CC(O)c1ccc(O)c(O)c1)c1nc(-c2cc(-c3ccon3)n(Cc3ccccc3F)n2)ncc1F (stereo not shown) [Compound 168, 4-(2-((5-fluoro-2-(1-(2-fluorobenzyl)-5-(isoxazol-3-yl)-1H-pyrazol-3-yl)pyrimidin-4-yl)(methyl)amino)-1-hydroxyethyl)benzene-1,2-diol] | < 100
O=C1C[C@H](O)C[C@@H](CCNc2nc(-c3cc(-c4ccon4)n(Cc4ccccc4F)n3)ncc2F)O1 [Compound 133, (4R,6R)-6-(2-((5-fluoro-2-(1-(2-fluorobenzyl)-5-(isoxazol-3-yl)-1H-pyrazol-3-yl)pyrimidin-4-yl)amino)ethyl)-4-hydroxytetrahydro-2H-pyran-2-one] | < 100
OCCCCNc1nc(-c2cc(-c3ccon3)n(Cc3ccccc3F)n2)ncc1F [Compound 176, 4-((5-fluoro-2-(1-(2-fluorobenzyl)-5-(isoxazol-3-yl)-1H-pyrazol-3-yl)pyrimidin-4-yl)amino)butan-1-ol] | < 100
COC(=O)CCCNc1nc(-c2cc(-c3ccon3)n(Cc3ccccc3F)n2)ncc1F [Compound 174, methyl 4-((5-fluoro-2-(1-(2-fluorobenzyl)-5-(isoxazol-3-yl)-1H-pyrazol-3-yl)pyrimidin-4-yl)amino)butanoate] | < 100
Oc1nc(-c2cc(-c3ccon3)n(Cc3cccc(F)c3)n2)ncc1F [Compound 197] | 100 to 1000
Oc1nc(-c2cc(-c3ccon3)n(Cc3ncccn3)n2)ncc1F [Compound 215] | > 1000
NCC(=O)OCCCNc1nc(-c2cc(-c3ccon3)n(Cc3ccccc3F)n2)ncc1F [Compound 177, 3-((5-fluoro-2-(1-(2-fluorobenzyl)-5-(isoxazol-3-yl)-1H-pyrazol-3-yl)pyrimidin-4-yl)amino)propyl 2-aminoacetate] | < 100

Structure (SMILES) | EC50 [nM]
Cn1cc(Cn2nc(-c3ncc(F)c(O)n3)cc2-c2ccon2)cn1 [Compound 186] | > 1000
Cc1ccc(Cn2nc(-c3ncc(F)c(O)n3)cc2-c2ccon2)cc1F [Compound 188] | < 100
Cn1nccc1Cn1nc(-c2ncc(F)c(O)n2)cc1-c1ccon1 [Compound 212] | > 1000
Fc1cnc(-c2cc(-c3ccon3)n(Cc3cccc(F)c3F)n2)nc1 [Compound 142] | > 1000
Oc1nc(-c2cc(-c3ccon3)n(Cc3ncccc3F)n2)ncc1F [Compound 143, 5-fluoro-2-(1-((3-fluoropyridin-2-yl)methyl)-5-(isoxazol-3-yl)-1H-pyrazol-3-yl)pyrimidin-4(3H)-one] | > 1000
Oc1nc(-c2cc(-c3ccon3)n(Cc3cccnc3)n2)ncc1F [Compound 189] | > 1000
NCC(=O)OC1CCN(c2nc(-c3cc(-c4ccon4)n(Cc4ccccc4F)n3)ncc2F)CC1 [Compound 173, 1-(5-fluoro-2-(1-(2-fluorobenzyl)-5-(isoxazol-3-yl)-1H-pyrazol-3-yl)pyrimidin-4-yl)piperidin-4-yl 2-aminoacetate] | < 100
Nc1nc(-c2cc(-c3ccon3)n(Cc3ncccc3F)n2)ncc1F [Compound 146] | 100 to 1000
CCOC(=O)C(C)(C)c1nnc(-c2cc(-c3ccon3)n(Cc3ccccc3F)n2)nc1N [Compound 209] | > 1000
NCC(=O)OCCCCNc1nc(-c2cc(-c3ccon3)n(Cc3ccccc3F)n2)ncc1F [Compound 178, 4-((5-fluoro-2-(1-(2-fluorobenzyl)-5-(isoxazol-3-yl)-1H-pyrazol-3-yl)pyrimidin-4-yl)amino)butyl 2-aminoacetate] | < 100
COC(=O)CCN(C)c1nc(-c2cc(-c3ccon3)n(Cc3ccccc3F)n2)ncc1F [Compound 172, methyl 3-((5-fluoro-2-(1-(2-fluorobenzyl)-5-(isoxazol-3-yl)-1H-pyrazol-3-yl)pyrimidin-4-yl)(methyl)amino)propanoate] | < 100
O=c1[nH]c(-c2cc(-c3ccsn3)n(Cc3ccccc3F)n2)ncc1F [Compound 111] | < 100
CCOC(=O)C(C)(C)c1nnc(-c2cc(-c3ccon3)n(Cc3ccccc3F)n2)nc1O [Compound 191] | 100 to 1000
Oc1nc(-c2cc(-c3ccon3)n(Cc3cncnc3)n2)ncc1F [Compound 216] | > 1000
Oc1nc(-c2cc(-c3ccon3)n(Cc3ccc(F)cc3)n2)ncc1F [Compound 213] | 100 to 1000
Cc1ccc(Cn2nc(-c3ncc(F)c(O)n3)cc2-c2ccon2)c(F)c1 [Compound 208] | 100 to 1000
Fc1cnc(-c2cc(-c3ccon3)n(Cc3ncccc3F)n2)nc1 [Compound 144] | > 1000
O[C@@H]1CN(c2nc(-c3cc(-c4ccon4)n(Cc4ccccc4F)n3)ncc2F)C[C@@H]1O [Compound 169, cis-1-(5-fluoro-2-(1-(2-fluorobenzyl)-5-(isoxazol-3-yl)-1H-pyrazol-3-yl)pyrimidin-4-yl)pyrrolidine-3,4-diol] | < 100
